Consider 1 compound from patent US20090054346A1, “ELASTIN PRODUCTION-ENHANCING AGENTS” (Rohto Pharmaceutical Co., Ltd., priority 2006, published 2009).

The data set relates to Normal human skin-derived fibroblasts (CRL-1836). As to the kind of experiment: Microscopic observation of fibroblasts after 72 hours of culture (cell count, morphology). The data set is classed as cell-based. As to conditions: 1000 μg/ml peptide. Here is the method:
Normal human skin-derived fibroblasts (CRL-1836; ATCC) were cultured in 60-mm dishes. More specifically, the cells were plated in dishes at a density of 2500 cells/cm^2, and cultured until subconfluent at 37° C. under 5% carbon dioxide gas and 95% air for 6 days. 3 ml of Dulbecco's Modified Eagle Medium (DMEM) supplemented with […] fetal bovine serum (FBS) was used in the culture. Then, the culture medium was changed to the same medium without FBS (namely, serum-free medium), and the culture was continued for 1 day. Next, the culture medium was changed to 3 ml of serum-free medium supplemented with 1000 μg/ml of the LEHA peptide prepared in Example 1, and the cells were cultured for 72 hours. Meanwhile, the culture in which the medium was changed to 3 ml of serum-free culture medium without the LEHA peptide was used as a control.
After 72 hours of culture, the cells in the dishes containing the LEHA peptide and the control dishes were observed under a microscope.

Peptide text beside a SMILES is read from it.

Regarding `CC(C)C[C@H](N)C(=O)N[C@@H](CCC(=O)O)C(=O)N[C@@H](Cc1c[nH]cn1)C(=O)N[C@@H](C)C(=O)O` [LEHA peptide, Leu-Glu-His-Ala] (H-LEHA-OH), the “cell counts versus control dishes” value was “not significantly different” and the “morphological abnormality of the cells” value was “no morphological abnormality was observed”.
